Measured values from PubChem BioAssay AID1919014 (Molecular Pharmacology Branch, DTP, NCI, 2023).

Test system: NCI-H1341 complex spheroids, percent test/control
Assay: Anticancer human tumor NCI-H1341 cell line growth inhibition [AhR];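 further: spheroids exposed to agents for seven days before readout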
Conditions: for IC50: curve of first compound; for viability, T/C: stronger effect = lower value
In short: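 Complex tumor spheroids co-cultured with HUVEC and human MSC stroma; AhR antagonists tested in combination with standard-of-care and investigational agents. Top concentration at or near clinical Cmax (else 10 microM), half-log dilutions; growth expressed as percent test/control.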

[1] = second compound 0.1 µM, first compound 0.000949 µM
[2] = second compound 0.1 µM, first compound 0.003 µM
[3] = second compound 0.1 µM, first compound 0.00949 µM
[4] = second compound 0.1 µM, first compound 0.03 µM
[5] = second compound 0.1 µM, first compound 0.0949 µM
[6] = second compound 0.1 µM, first compound 0.3 µM
[7] = second compound 0.316 µM, first compound 0.000949 µM
[8] = second compound 0.316 µM, first compound 0.003 µM
[9] = second compound 0.316 µM, first compound 0.00949 µM
[10] = second compound 0.316 µM, first compound 0.03 µM
[11] = second compound 0.316 µM, first compound 0.0949 µM
[12] = second compound 0.316 µM, first compound 0.3 µM
[13] = second compound 1 µM, first compound 0.000949 µM
[14] = second compound 1 µM, first compound 0.003 µM
[15] = second compound 1 µM, first compound 0.00949 µM
[16] = second compound 1 µM, first compound 0.03 µM
[17] = second compound 1 µM, first compound 0.0949 µM
[18] = second compound 1 µM, first compound 0.3 µM
[19] = second compound 3.16 µM, first compound 0.000949 µM
[20] = second compound 3.16 µM, first compound 0.003 µM
[21] = second compound 3.16 µM, first compound 0.00949 µM
[22] = second compound 3.16 µM, first compound 0.03 µM
[23] = second compound 3.16 µM, first compound 0.0949 µM
[24] = second compound 3.16 µM, first compound 0.3 µM
[25] = second compound 10 µM, first compound 0.000949 µM
[26] = second compound 10 µM, first compound 0.003 µM
[27] = second compound 10 µM, first compound 0.00949 µM
[28] = second compound 10 µM, first compound 0.03 µM
[29] = second compound 10 µM, first compound 0.0949 µM
[30] = second compound 10 µM, first compound 0.3 µM

## CC(C)CC(NC(=O)C(Cc1ccccc1)NC(=O)c1cnccn1)B(O)O (stereo not given) + Cc1cncc(-c2nc(NCCc3c[nH]c4ccccc34)c3ncn(C(C)C)c3n2)c1
Second compound 0.1 µM
  IC50: 5.11 nM
Second compound 0.316 µM
  IC50: 4.76 nM
Second compound 1 µM
  IC50: 4 nM
Second compound 3.16 µM
  IC50: 3.73 nM
Second compound 10 µM
  IC50: < 0.949 nM
[1]
  viability, T/C: 98.4%
[2]
  viability, T/C: 89.7%
[3]
  viability, T/C: 3.87%
[4]
  viability, T/C: 0.1%
[5]
  viability, T/C: 0.05%
[6]
  viability, T/C: 0.16%
[7]
  viability, T/C: 80.5%
[8]
  viability, T/C: 83.1%
[9]
  viability, T/C: 2.53%
[10]
  viability, T/C: 0.14%
[11]
  viability, T/C: 0.06%
[12]
  viability, T/C: 0.12%
[13]
  viability, T/C: 83.4%
[14]
  viability, T/C: 65.8%
[15]
  viability, T/C: 2.45%
[16]
  viability, T/C: 0.11%
[17]
  viability, T/C: 0.05%
[18]
  viability, T/C: 0.5%
[19]
  viability, T/C: 56.4%
[20]
  viability, T/C: 66.4%
[21]
  viability, T/C: 1.23%
[22]
  viability, T/C: 0.06%
[23]
  viability, T/C: 0.08%
[24]
  viability, T/C: 0.14%
[25]
  viability, T/C: 28%
[26]
  viability, T/C: 58.4%
[27]
  viability, T/C: 0.22%
[28]
  viability, T/C: 0.14%
[29]
  viability, T/C: 0.15%
[30]
  viability, T/C: 0.17%

## CCc1c2c(nc3ccc(O)cc13)-c1cc3c(c(=O)n1C2)COC(=O)[C@]3(O)CC + Cc1cncc(-c2nc(NCCc3c[nH]c4ccccc34)c3ncn(C(C)C)c3n2)c1
Second compound 0.1 µM
  IC50: 7.13 nM
Second compound 0.316 µM
  IC50: 3.57 nM
Second compound 1 µM
  IC50: < 0.949 nM
Second compound 3.16 µM
  IC50: < 0.949 nM
Second compound 10 µM
  IC50: < 0.949 nM
[1]
  viability, T/C: 69.6%
[2]
  viability, T/C: 65.8%
[3]
  viability, T/C: 41.9%
[4]
  viability, T/C: 31.9%
[5]
  viability, T/C: 25.2%
[6]
  viability, T/C: 11.9%
[7]
  viability, T/C: 63.2%
[8]
  viability, T/C: 55.8%
[9]
  viability, T/C: 33.8%
[10]
  viability, T/C: 31.8%
[11]
  viability, T/C: 22.9%
[12]
  viability, T/C: 10%
[13]
  viability, T/C: 46.1%
[14]
  viability, T/C: 45.6%
[15]
  viability, T/C: 36.4%
[16]
  viability, T/C: 31.7%
[17]
  viability, T/C: 20.4%
[18]
  viability, T/C: 8.02%
[19]
  viability, T/C: 46%
[20]
  viability, T/C: 38.2%
[21]
  viability, T/C: 34.6%
[22]
  viability, T/C: 26.3%
[23]
  viability, T/C: 15.2%
[24]
  viability, T/C: 5.83%
[25]
  viability, T/C: 15.2%
[26]
  viability, T/C: 13%
[27]
  viability, T/C: 14.9%
[28]
  viability, T/C: 8.23%
[29]
  viability, T/C: 4.28%
[30]
  viability, T/C: 1.78%

## Nc1ccccc1NC(=O)c1ccc(CNC(=O)OCc2cccnc2)cc1 + Cc1cncc(-c2nc(NCCc3c[nH]c4ccccc34)c3ncn(C(C)C)c3n2)c1
Second compound 0.1 µM
  IC50: 403 nM
Second compound 0.316 µM
  IC50: 382 nM
Second compound 1 µM
  IC50: 369 nM
Second compound 3.16 µM
  IC50: 127 nM
Second compound 10 µM
  IC50: < 31.6 nM
Second compound 0.1 µM, first compound 0.0316 µM
  viability, T/C: 66.1%
Second compound 0.1 µM, first compound 0.1 µM
  viability, T/C: 76.2%
Second compound 0.1 µM, first compound 0.316 µM
  viability, T/C: 52.2%
Second compound 0.1 µM, first compound 1 µM
  viability, T/C: 29.1%
Second compound 0.1 µM, first compound 3.16 µM
  viability, T/C: 5.05%
Second compound 0.1 µM, first compound 10 µM
  viability, T/C: 0.51%
Second compound 0.316 µM, first compound 0.0316 µM
  viability, T/C: 73.4%
Second compound 0.316 µM, first compound 0.1 µM
  viability, T/C: 65.8%
Second compound 0.316 µM, first compound 0.316 µM
  viability, T/C: 55.7%
Second compound 0.316 µM, first compound 1 µM
  viability, T/C: 26.1%
Second compound 0.316 µM, first compound 3.16 µM
  viability, T/C: 5.82%
Second compound 0.316 µM, first compound 10 µM
  viability, T/C: 0.6%
Second compound 1 µM, first compound 0.0316 µM
  viability, T/C: 68.6%
Second compound 1 µM, first compound 0.1 µM
  viability, T/C: 84.9%
Second compound 1 µM, first compound 0.316 µM
  viability, T/C: 51.3%
Second compound 1 µM, first compound 1 µM
  viability, T/C: 19.8%
Second compound 1 µM, first compound 3.16 µM
  viability, T/C: 5.68%
Second compound 1 µM, first compound 10 µM
  viability, T/C: 0.56%
Second compound 3.16 µM, first compound 0.0316 µM
  viability, T/C: 55.3%
Second compound 3.16 µM, first compound 0.1 µM
  viability, T/C: 52.2%
Second compound 3.16 µM, first compound 0.316 µM
  viability, T/C: 42.3%
Second compound 3.16 µM, first compound 1 µM
  viability, T/C: 21.7%
Second compound 3.16 µM, first compound 3.16 µM
  viability, T/C: 8.4%
Second compound 3.16 µM, first compound 10 µM
  viability, T/C: 0.87%
Second compound 10 µM, first compound 0.0316 µM
  viability, T/C: 21.9%
Second compound 10 µM, first compound 0.1 µM
  viability, T/C: 22.6%
Second compound 10 µM, first compound 0.316 µM
  viability, T/C: 15.2%
Second compound 10 µM, first compound 1 µM
  viability, T/C: 9.63%
Second compound 10 µM, first compound 3.16 µM
  viability, T/C: 1.83%
Second compound 10 µM, first compound 10 µM
  viability, T/C: 0.47%
